One series addresses T1, human thrombin (Homo sapiens, UniProt P00734).
T1 construct: 10U/ml human thrombin
The series is described as follows: Thrombin clotting time in pooled human plasma, initial effect before incubation. Format: biochemical. To be noted: 3.3 U/ml human thrombin, 37° C.

In another series the test system is thrombin clotting time. Description: Ex vivo clotting time prolongation after oral dosing of rats. The series is classed as in vivo, rat. To be noted: rats dosed orally (p.o.), three per group; clotting time measured ex vivo. Here is the method: Human citrated plasma obtained from human volunteers or citrated plasma obtained from dosed animals (prepared as described below). 25 NIH Units/ml human α-thrombin in thrombin buffer for use with rat plasma. 10 NIH Units/ml human α-thrombin in thrombin buffer for use with human plasma. Dosing: Test compound was prepared just prior to dosing. Routinely the drugs are dissolved in water. Occasionally other vehicles are used, such as PEQ-200 stock solutions are vortex mixed and animals are dosed p.o. using a 3 ml syringe with an 18-19 gauge oral gavage needle or i.p. injection. Blood Drawing for Rats: After the appropriate time period, the animals were ether-anesthetized, and blood was drawn by cardiac puncture using 333 μl of 3.8% sodium citrate per 3 ml blood. […] Clotting times were determined by pipetting 0.1 ml of Owren's buffer (pre-warmed to 37° C.) and 0.1 ml of human or rat plasma into yellow sample cuvettes. For studies with human plasma 10 U/ml human thrombin (10 ml) was placed in the reservoir assembly station of the MLA 700. (Medical Laboratory Automation, Electra 700 Reservoir Assembly). For rat studies, the human thrombin concentration was 25 U/ml. The cuvettes were vortexed and then placed on the MLA 700 sample wheel. The coagulation timer (MLA 700) automatically dispenses 0.1 ml human thrombin into the sample in each cuvette. Detection of the fibrin clot was determined optically by the MLA 700. In separate studies, compounds were dosed orally (p.o.) to three rats in each study group. […] Consequently, they are useful in controlling blood coagulation in mammals including humans.

Series [1] in a line: Clotting time after incubation of compound in water at 40° C. (stability). To be noted: 50 μM stock in deionized water, 0.25-24 hours, FIG. 1. The series is classed as physicochemical. Here is the method: CLOTTING TIME AFTER INCUBATION OF COMPOUND IN WATER AT 40° C.
Fresh blood was drawn from two human donors into vacutainer tubes containing buffered sodium citrate (16 mg sodium citrate and 2.1 mg citric acid per 4.5 ml of blood). The tubes were centrifugated immediately at 1920×g for 15 minutes to obtain fresh platelet poor plasma. The plasma was pooled and 10 ml aliquots were divided into three test tubes. Two tubes were frozen and maintained at -20° C. for future use and one tube was kept on ice throughout testing.
The compound of Example 14 and D-Phe-Pro-Arg aldehyde: H2 SO4 were prepared as stock solutions (50 μM) in deionized water. […] After the initial effect of these compounds on clotting time was determined, the compounds were placed in a 40° C. water bath for various time intervals (from 0.25-24 hours) and aliquots were withdrawn to determine the effect of the incubation on clotting time.
Clotting times were measured optically using the Medical Laboratory Automation Electra 700 (MLA 700). Test cuvettes contained 0.1 ml of pre-warmed Owren's buffer, 0.1 ml of the human plasma and 1.2 and 3.0 μl of the test compounds dissolved in water. […] Clotting time was determined at 37° C. after the addition of 0.1 ml of 10U/ml human thrombin (final concentration=3.3 U/ml).
The stability of the compounds of the present invention were measured or described in the biological procedures. […]

Non-standard residues stand in square brackets, D forms with d. Residues, ends and D or L forms follow the SMILES beside them. *: point of attachment. Hydrocinnamoyl = O=C(CCc1ccccc1)*; PhAc = O=C(Cc1ccccc1)*; Bz = O=C(c1ccccc1)*

We go through 8 compounds from patent US5380713A, “Peptide aldehydes as antithrombotic agents” (Bristol-Myers Squibb Company, priority 1994, dated 1995).

Experimental for human thrombin: Clotting times were measured optically using the Medical Laboratory Automation Electra 700 (MLA 700). Test cuvettes contained 0.1 ml of pre-warmed Owren's buffer, 0.1 ml of the human plasma and 1.2 and 3.0 μl of the test compounds dissolved in water. The cuvette was then vortex mixed and placed on the MLA 700 sample wheel. Clotting time was determined at 37° C. after the addition of 0.1 ml of 10U/ml human thrombin (final concentration=3.3 U/ml).

With `N=C(N)NCCC[C@@H](C=O)NC(=O)[C@@H]1CCCN1C(=O)[C@H](N)Cc1ccccc1` [D-Phe-Pro-Arg aldehyde, D-Phe-Pro-Arg aldehyde: H2 SO4, reference compound], the “final concentration which initially caused prolongation of clotting time to approximately three times control value” on human thrombin turned out to be 0.5 µM.

For `Cl.Cl.N=C(N)NCCC[C@@H](C=O)NC(=O)[C@@H]1CCCN1C(=O)CCc1cccnc1` [Example 8, N^α [N-(3-(3-Pyridyl)propanoyl)-L-Prolyl]-L-arginine aldehyde Dihydrochloride], in the series on thrombin clotting time, the DTT is given as ~ 100 mg/kg.

As for `Cl.N=C(N)NCCC[C@@H](C=O)NC(=O)[C@@H]1CCCN1C(=O)c1ccccc1` [Example 9, Nα-[N-Benzoyl-L-prolyl]-L-arginine aldehyde Hydrochloride] (Bz-Pro-Arg-aldehyde), in the series with thrombin clotting time, the DTT is 150 mg/kg.

In the series with thrombin clotting time, `Cl.N=C(N)NCCC[C@@H](C=O)NC(=O)[C@@H]1CCCN1C(=O)Cc1ccccc1` [Example 12, N^α -[N-Phenylacetyl-L-prolyl]-L-arginine aldehyde Hydrochloride] (PhAc-Pro-Arg-aldehyde) registered a DTT of 100 mg/kg.

In turn, `Cl.N=C(N)NCCC[C@@H](C=O)NC(=O)[C@@H]1CCCN1C(=O)CCC1CCCCC1` [Example 13, N^α -[N-(3-Cyclohexylpropanoyl)-L-prolyl]-L-arginine aldehyde Hydrochloride] displayed a DTT with thrombin clotting time of 100 mg/kg.

`Cl.N=C(N)NCCC[C@@H](C=O)NC(=O)[C@@H]1CCCN1C(=O)CCc1ccccc1` [Example 14, N^α -[N-(3-Phenylpropanoyl)-L-prolyl]-L-arginine aldehyde Hydrochloride] (Hydrocinnamoyl-Pro-Arg-aldehyde): the “final concentration which initially caused prolongation of clotting time to approximately three times control value” on human thrombin came out at 0.2 µM. The same compound showed a DTT in the series with thrombin clotting time of 60 mg/kg. For the same compound, the “stability in water (effect of incubation on clotting time)” value in series [1] was “more stable than the corresponding D-phe compound”.

For `Cl.Cl.N=C(N)NCCC[C@@H](C=O)NC(=O)[C@@H]1CCCN1C(=O)[C@@H](Cc1ccccc1)NC(=O)CN` [Example 16, N^α -[Glycl-D-phenylalanyl-L-prolyl]-L-arginine aldehyde Dihydrochloride] (H-G[dF]PR-aldehyde), the DTT with thrombin clotting time is 50 mg/kg.

For the compound `C[C@H](NC(=O)[C@H](N)Cc1ccccc1)C(=O)N[C@H](C=O)CCCNC(=N)N.O=S(=O)(O)O` [Example 19, N^α -[D-Phenylalanyl-L-alanyl]-L-arginine aldehyde Sulfate] (H-[dF]-Ala-Arg-aldehyde), the DTT with thrombin clotting time is given as 110 mg/kg.
